Columns and labels:
Assay in all cases: cells
Set-up in all cases: Viability of PDAC cell lines, ATPlite luminescence, 11-dose single-agent curve fit
AsPC-1 = conditions: Homo sapiens, ASPC1, 72 h, read-out: EC50 [nM]
Procedure, shortened: (§1)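 cells (1000 to 5000 per well) seeded 24 h before drug addition in a screen at 0.2% final DMSO. Controls were drug-free wells (negative) and 5 µM staurosporine (positive).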

BxPC-3 = conditions: Homo sapiens, BXPC-3, 72 h, read-out: EC50 [nM]
Procedure, shortened: as §1

Capan-1 = conditions: Homo sapiens, CAPAN-1, 72 h, read-out: EC50 [nM]
Procedure, shortened: as §1

Colo-357 = conditions: Homo sapiens, COLO357, 72 h, read-out: EC50 [nM]
Procedure, shortened: as §1

Dan-G = conditions: 72 h, read-out: EC50 [nM]
Procedure, shortened: as §1

FAMPAC = conditions: 72 h, read-out: EC50 [nM]
Procedure, shortened: as §1

HPDE = conditions: HPDE, 72 h, read-out: EC50 [nM]
Procedure, shortened: as §1

HuP-T4 = conditions: Homo sapiens, HuP-T4, 72 h, read-out: EC50 [nM]
Procedure, shortened: as §1

MiaPaCa-2 = conditions: Homo sapiens, MIA PaCa-2, 72 h, read-out: EC50 [nM]
Procedure, shortened: as §1

PANC-1 = conditions: Homo sapiens, PANC-1, 72 h, read-out: EC50 [nM]
Procedure, shortened: as §1

PSN-1 = conditions: Homo sapiens, PSN1, 72 h, read-out: EC50 [nM]
Procedure, shortened: as §1

PaTu-8988-T = conditions: Homo sapiens, PaTu 8988t, 72 h, read-out: EC50 [nM]
Procedure, shortened: as §1

Suit2-07 = conditions: 72 h, read-out: EC50 [nM]
Procedure, shortened: as §1

Structure (SMILES) | EC50 (AsPC-1) [nM] | EC50 (BxPC-3) [nM] | EC50 (Capan-1) [nM] | EC50 (Colo-357) [nM] | EC50 (Dan-G) [nM] | EC50 (FAMPAC) [nM] | EC50 (HPDE) [nM] | EC50 (HuP-T4) [nM] | EC50 (MiaPaCa-2) [nM] | EC50 (PANC-1) [nM] | EC50 (PSN-1) [nM] | EC50 (PaTu-8988-T) [nM] | EC50 (Suit2-07) [nM]
Cc1cn(-c2cc(NC(=O)c3ccc(C)c(Nc4nccc(-c5cccnc5)n4)c3)cc(C(F)(F)F)c2)cn1 [Nilotinib] | > 10000 | 3610 | > 10000 | > 10000 | > 10000 | > 10000 | > 10000 | 22.2 | 3700 | 3790 | > 10000 | 5190 | 186
CC1(C)CNc2cc(NC(=O)c3cccnc3NCc3ccncc3)ccc21 [Motesanib] | 9400 | > 10000 | 9170 | 3910 | > 10000 | > 10000 | 8730 | 515 | 7350 | > 10000 | 2550 | 455 | 942
Cc1cc(F)c(C(=O)Nc2cccc(-c3nncn3C(C)C)n2)cc1-n1cnc(C2CC2)c1 [Selonsertib] | 755 | > 10000 | 8570 | > 10000 | 10300 | > 10000 | > 10000 | 3.85 | 4950 | 8800 | 6150 | 5440 | 4310
CONC(=O)c1ccccc1Nc1cc(Nc2cc(C)nn2C(C)C)ncc1Cl [GSK2256098] | 292 | 1670 | 1650 | 515 | 3730 | 3020 | 156 | 4790 | 2520 | 804 | 5120 | 858 | 6450
C[C@@H](c1ccc2nccn2c1)n1nnc2ncc(-c3cnn(C)c3)nc21 [Volitinib] | 114 | 2030 | > 10000 | 226 | 5780 | 1030 | 80 | 91.1 | 8640 | 3950 | 16.9 | > 10000 | 285
CC(C)Oc1ccc(-c2nn([C@@H](C)c3oc4ccc(F)cc4c(=O)c3-c3cccc(F)c3)c3ncnc(N)c23)cc1F [Umbralisib] | 26.5 | 683 | 39.7 | 0.12 | 441 | 8790 | 6540 | 1370 | > 10000 | 655 | 62.6 | 4550 | 1310
COc1cc2nccc(Oc3ccc(NC(=O)NC4CC4)c(Cl)c3)c2cc1C(N)=O [Lenvatinib] | 394 | > 10000 | 7850 | 4390 | 39.1 | 164 | > 10000 | 0.14 | 4890 | 655 | 7480 | > 10000 | 0.2
O=S(=O)(c1cccc2cnccc12)N1CCCNCC1 [Fasudil] | 2.85 | 805 | > 10000 | 6850 | 2960 | > 10000 | > 10000 | 609 | 3390 | 5330 | 0.04 | 1140 | 2790
Cc1c(F)cc(C(=O)NC2CC2)cc1-c1ccc(C(=O)NCC(C)(C)C)cn1 [Losmapimod] | 361 | 536 | 150 | 26.1 | 363 | 0.11 | 25.6 | 218 | 449 | 95.7 | 130 | 1180 | 10.7

Reference: paper PMC11876601 (Molecular Systems Biology, 2025)
